In one test the target is T1, rat A3 AR (Rattus norvegicus, UniProt P28647).
T1 sequence (P28647 1-320): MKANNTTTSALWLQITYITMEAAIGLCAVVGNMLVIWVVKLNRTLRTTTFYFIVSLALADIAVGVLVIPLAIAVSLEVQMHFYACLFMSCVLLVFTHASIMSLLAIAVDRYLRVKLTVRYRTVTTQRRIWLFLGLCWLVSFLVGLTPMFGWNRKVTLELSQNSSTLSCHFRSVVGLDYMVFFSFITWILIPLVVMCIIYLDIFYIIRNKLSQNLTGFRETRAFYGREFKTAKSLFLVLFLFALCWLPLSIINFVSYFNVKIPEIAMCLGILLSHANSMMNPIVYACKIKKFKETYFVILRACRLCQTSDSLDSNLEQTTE
As to the kind of experiment: Radioligand binding at rat A3 AR. Conditions: for Binding affinity at the rat A3 AR (in words): CHO cells.

The test system of the next test is human A2B AR. Conditions: cited from earlier work.
A further test has as its target T2, human A3 AR (Homo sapiens, UniProt P0DMS8).
T2 sequence (P0DMS8 1-318): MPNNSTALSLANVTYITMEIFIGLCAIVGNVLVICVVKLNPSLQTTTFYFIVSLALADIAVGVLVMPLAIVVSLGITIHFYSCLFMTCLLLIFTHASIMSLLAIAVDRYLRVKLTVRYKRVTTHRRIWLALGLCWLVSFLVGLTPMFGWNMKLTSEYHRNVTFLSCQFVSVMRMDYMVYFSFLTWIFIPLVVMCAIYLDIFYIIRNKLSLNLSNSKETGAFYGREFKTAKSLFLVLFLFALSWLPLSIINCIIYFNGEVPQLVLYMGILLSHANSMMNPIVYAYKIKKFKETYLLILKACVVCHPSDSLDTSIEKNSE
As to the kind of experiment: Radioligand binding at human A3 AR. Conditions: stated for all subtypes of ARs (hA1, hA2A, hA3).

Entries after “also recorded” stand apart in the source; their conditions may differ.

`O[C@@H]1[C@H](O)CS[C@H]1n1cnc2c(NCc3cccc(Br)c3)nc(Cl)nc21` [Compound 6d] displayed a Ki on rat A3 AR of 0.0061 ± 0.0018 µM.
For `O[C@@H]1[C@H](O)CS[C@H]1n1cnc2c(NCc3cccc(I)c3)nc(Cl)nc21` [Compound 6e], the “Activity as agonist or antagonist in a cyclic AMP functional assay at the hA2B AR” value in the test on human A2B AR was “inactive as agonist or antagonist”.
For the compound `O[C@H]1[C@@H](O)CS[C@@H]1n1cnc2c(NCc3cccc(I)c3)nc(Cl)nc21` [Compound 7g], at human A3 AR, the “Binding affinity (in words)” value is listed as “totally devoid of binding affinities”.
`O[C@H]1[C@@H](O)CS[C@@H]1n1cnc2c(NCc3cccc(Br)c3)nc(Cl)nc21` [Compound 7f]: at human A3 AR, the “Binding affinity (in words)” value was “totally devoid of binding affinities”.
`O[C@@H]1[C@H](O)CS[C@H]1n1cnc2c(NCc3cccc(F)c3)nc(Cl)nc21` [Compound 6b] had a Ki at rat A3 AR of 0.0362 ± 0.0107 µM.
With `CNc1nc(Cl)nc2c1ncn2[C@@H]1SC[C@@H](O)[C@H]1O` [Compound 6a], at rat A3 AR, the Ki was found to be 0.658 ± 0.16 µM and the “Binding affinity at the rat A3 AR (in words)” value is given as “lost their binding affinities”.
`CNc1ncnc2c1ncn2[C@@H]1SC[C@@H](O)[C@H]1O` [Compound 7a, (2R,3R,4S)-Tetrahydro-2-(6-(methylamino)-9H-purin-9-yl)thiophene-3,4-diol]: the “Binding affinity at the rat A3 AR (in words)” value on rat A3 AR was “totally devoid of A3AR binding affinity; also recorded: lost their binding affinities”.

What is called Ki is a dissociation constant, usually derived from enzyme kinetics or from competition with a known ligand. Read a low Ki as higher affinity.

(Values after PMC3616494 (Journal of medicinal chemistry, 2008).)
